Results from US20140243273A1, “METHODS FOR TREATING INFLAMMATORY DISEASES AND PHARMACEUTICAL COMBINATIONS USEFUL THEREFOR” (Vertex Pharmaceuticals Incorporated, priority 2011, published 2014).

Experiments:
JAK2 = JAK2 (Homo sapiens, UniProt O60674); test: JAK2 Inhibition Assay; format: biochemical; conditions: 5 nM JAK-2 enzyme, 15 μM poly(Glu)4Tyr, 12 μM ATP; kind of constant not given
Method: [The procedure below names another target; the source says it served here with some conditions changed.] (§1) Compounds were screened for their ability to inhibit JAK3 using the assay shown below. Reactions were carried out in a kinase buffer containing 100 mM HEPES (pH 7.4), 1 mM DTT, 10 mM MgCl2, 25 mM NaCl, and 0.01% BSA. Substrate concentrations in the assay were 5 μM ATP (200 uCi/μmole ATP) and 1 μM poly(Glu)4Tyr. Reactions were carried out at 25° C. and 1 nM JAK3.
(§2) To each well of a 96 well polycarbonate plate was added 1.5 μl of a compound of Formula I along with 50 μl of kinase buffer containing 2 μM poly(Glu)4Tyr and 10 μM ATP. This was then mixed and 50 μl of kinase buffer containing 2 nM JAK3 enzyme was added to start the reaction. After 15 minutes at room temperature (25° C.), the reaction was stopped with 50 μl of 20% trichloroacetic acid (TCA) that also contained 0.4 mM ATP. The entire contents of each well were then transferred to a 96 well glass fiber filter plate using a TomTek Cell Harvester. After washing, 60 μl of scintillation fluid was added and ^33P incorporation detected on a Perkin Elmer TopCount.

JAK3 = molecular target: T1, JAK3 (Homo sapiens, UniProt P52333); test: JAK3 Inhibition Assay; format: biochemical; conditions: 1 nM JAK3, 1 μM poly(Glu)4Tyr, 5 μM ATP, 25° C.; kind of constant not given
T1 sequence (P52333 1-1124): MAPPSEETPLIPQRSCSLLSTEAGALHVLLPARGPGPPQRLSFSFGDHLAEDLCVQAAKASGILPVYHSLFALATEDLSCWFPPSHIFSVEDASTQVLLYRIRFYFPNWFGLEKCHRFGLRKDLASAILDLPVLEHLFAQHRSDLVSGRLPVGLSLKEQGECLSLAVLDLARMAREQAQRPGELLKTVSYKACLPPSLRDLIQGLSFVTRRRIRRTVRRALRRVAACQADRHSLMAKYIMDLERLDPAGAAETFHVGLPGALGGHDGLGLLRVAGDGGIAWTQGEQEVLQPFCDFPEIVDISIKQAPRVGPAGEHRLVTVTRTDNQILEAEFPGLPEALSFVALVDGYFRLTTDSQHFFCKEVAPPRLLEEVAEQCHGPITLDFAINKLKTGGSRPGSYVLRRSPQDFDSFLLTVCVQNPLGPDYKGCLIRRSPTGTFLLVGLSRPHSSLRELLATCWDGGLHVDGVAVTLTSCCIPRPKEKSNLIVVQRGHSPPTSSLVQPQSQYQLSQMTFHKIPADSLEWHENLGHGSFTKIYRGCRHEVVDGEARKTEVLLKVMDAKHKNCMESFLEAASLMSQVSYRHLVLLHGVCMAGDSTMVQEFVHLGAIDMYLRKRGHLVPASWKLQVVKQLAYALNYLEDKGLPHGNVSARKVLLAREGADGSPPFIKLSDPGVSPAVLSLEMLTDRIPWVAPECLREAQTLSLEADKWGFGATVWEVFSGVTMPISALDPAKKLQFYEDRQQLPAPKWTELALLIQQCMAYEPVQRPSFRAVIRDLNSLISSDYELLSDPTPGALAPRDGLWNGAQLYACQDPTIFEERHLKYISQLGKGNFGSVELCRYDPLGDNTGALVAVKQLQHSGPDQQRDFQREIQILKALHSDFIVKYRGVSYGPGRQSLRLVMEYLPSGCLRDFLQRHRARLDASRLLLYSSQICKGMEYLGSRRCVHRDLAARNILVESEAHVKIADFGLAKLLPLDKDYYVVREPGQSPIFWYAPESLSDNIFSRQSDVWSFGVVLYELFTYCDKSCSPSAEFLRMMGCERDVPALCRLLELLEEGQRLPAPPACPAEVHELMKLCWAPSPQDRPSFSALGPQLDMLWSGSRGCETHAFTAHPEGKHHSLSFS
Method: as §1, §2

mouse colitis model = test: Mouse model for Crohn's disease and ulcerative colitis (CD4+CD25- T cell transfer into SCID mice); format: in vivo; conditions: compound no. 9 (methane sulfonic acid), 50, 100, 150 mpk b.i.d., oral gavage, days 19-33, SCID mice
Method: Female SCID mice received grafts of 2.5×10e5 CD4+CD25-T cells from naïve BALB/c wild type donors (all Charles River Laboratories) to induce colitis. On day 14, after cell transfer, the recipient SCID mice were tested for graft acceptance and mice without T cells removed from the study. On days 19-33, the recipient SCID mice were administered compound no. 9 (methane sulfonic acid) mixed with vehicle (1% HPMC-c5, 50 mM Na citrate, pH 3.0) in doses of 50, 100, and 150 mpk b.i.d. Control mice were administered either saline, vehicle (1% HPMC-c5, 50 mM Na citrate, pH 3.0), or 1 mpk dexamethasone, b.i.d. Doses were administered via oral gavage. On day 35, the mice were sacrificed.

Sequence of JAK2 (O60674 whole entry, species assumed): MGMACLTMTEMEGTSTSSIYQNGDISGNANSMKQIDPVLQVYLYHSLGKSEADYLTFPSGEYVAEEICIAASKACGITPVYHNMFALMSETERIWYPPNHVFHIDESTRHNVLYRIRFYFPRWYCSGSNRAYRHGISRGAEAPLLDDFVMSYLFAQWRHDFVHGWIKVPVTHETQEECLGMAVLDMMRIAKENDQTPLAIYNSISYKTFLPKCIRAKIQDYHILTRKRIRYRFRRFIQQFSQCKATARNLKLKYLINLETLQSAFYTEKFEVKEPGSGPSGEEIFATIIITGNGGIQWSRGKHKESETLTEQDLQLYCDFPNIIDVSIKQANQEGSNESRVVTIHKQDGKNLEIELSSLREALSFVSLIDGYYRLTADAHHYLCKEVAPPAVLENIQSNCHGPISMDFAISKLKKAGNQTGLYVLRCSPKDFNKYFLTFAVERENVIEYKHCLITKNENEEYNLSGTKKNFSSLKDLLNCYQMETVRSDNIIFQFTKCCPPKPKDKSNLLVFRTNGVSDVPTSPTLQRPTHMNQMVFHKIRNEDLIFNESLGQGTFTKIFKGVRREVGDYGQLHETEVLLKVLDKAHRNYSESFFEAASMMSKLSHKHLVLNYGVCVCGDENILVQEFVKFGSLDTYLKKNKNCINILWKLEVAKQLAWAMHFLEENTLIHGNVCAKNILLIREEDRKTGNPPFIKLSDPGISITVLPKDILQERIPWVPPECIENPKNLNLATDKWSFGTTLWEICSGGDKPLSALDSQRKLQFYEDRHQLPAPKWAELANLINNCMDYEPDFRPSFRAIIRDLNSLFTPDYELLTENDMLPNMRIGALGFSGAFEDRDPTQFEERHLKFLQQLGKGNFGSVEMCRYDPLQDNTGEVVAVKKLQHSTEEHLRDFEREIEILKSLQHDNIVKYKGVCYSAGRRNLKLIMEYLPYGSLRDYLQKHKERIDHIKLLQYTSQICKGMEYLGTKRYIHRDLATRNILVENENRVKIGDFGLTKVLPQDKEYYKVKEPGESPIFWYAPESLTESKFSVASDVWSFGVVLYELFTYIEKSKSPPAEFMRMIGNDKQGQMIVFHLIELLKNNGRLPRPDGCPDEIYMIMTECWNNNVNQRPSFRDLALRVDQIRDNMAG

Compound | JAK2 (μM), inhibition data (JAK2) [µM] | JAK3 (μM), inhibition data (JAK3) [µM] | colon histology (mouse colitis model) | colon pathology (mouse colitis model) | frequency of splenic CD4+ T cells (mouse colitis model) | inflammatory cytokine production (mouse colitis model; colon tissue)
CC(C)(Nc1ccnc(-c2c[nH]c3ncc(Cl)cc23)n1)C(=O)NCC(F)(F)F [Compound No. 9] | 0.001 | 0.001 | Improvements | improved | significant reduction | improved
CC[C@@](C)(Nc1ccnc(-c2c[nH]c3ncccc23)n1)C(=O)NCC(F)(F)F [compound 1] | 0.015 | 0.003 | – | – | – | –
CC(C)(Nc1ccnc(-c2c[nH]c3ncccc23)n1)C(=O)NCC(F)(F)F [compound 2] | 0.028 | 0.0032 | – | – | – | –
CC[C@](C)(Nc1nc(-c2c[nH]c3ncccc23)ncc1F)C(=O)NCC(F)(F)F [compound 3] | 0.028 | 0.0042 | – | – | – | –
CC(C)(Nc1nc(-c2c[nH]c3ncccc23)ncc1F)C(=O)NCC(F)(F)F [compound 4] | 0.091 | 0.0056 | – | – | – | –
CC(C)[C@](C)(Nc1ccnc(-c2c[nH]c3ncccc23)n1)C(=O)NCC(F)(F)F [compound 5] | 0.0042 | 0.0024 | – | – | – | –
CC(C)(Nc1ncnc(-c2c[nH]c3ncccc23)n1)C(=O)NCC(F)(F)F [compound 6] | 0.046 | 0.0045 | – | – | – | –
CCN(C)C(=O)[C@](C)(CC)Nc1ccnc(-c2c[nH]c3ncccc23)n1 [compound 7] | 0.056 | 0.018 | – | – | – | –
CCNC(=O)C(C)(C)Nc1ncnc(-c2c[nH]c3ncccc23)n1 [compound 8] | 0.083 | 0.019 | – | – | – | –
CC(C)[C@](C)(Nc1nc(-c2c[nH]c3ncc(Cl)cc23)ncc1F)C(=O)NCC(F)(F)F [compound 10] | 0.001 | 0.002 | – | – | – | –
CC(C)[C@@](C)(Nc1nc(-c2c[nH]c3ncc(Cl)cc23)ncc1F)C(=O)NCC(F)(F)F [compound 11] | 0.055 | 0.006 | – | – | – | –
CC[C@@](C)(Nc1nc(-c2c[nH]c3ncc(Cl)cc23)ncc1F)C(=O)NCC(F)(F)F [compound 12] | 0.037 | 0.006 | – | – | – | –
CC(C)(Nc1ncnc(-c2c[nH]c3ncc(Cl)cc23)n1)C(=O)NCC(F)(F)F [compound 13] | 0.003 | 0.001 | – | – | – | –
CC[C@](C)(Nc1ccnc(-c2c[nH]c3ncc(Cl)cc23)n1)C(=O)NCC(F)(F)F [compound 14] | 0.002 | 0.003 | – | – | – | –
CC[C@](C)(Nc1nc(-c2c[nH]c3ncc(Cl)cc23)ncc1F)C(=O)NCC(F)(F)F [compound 15] | 0.001 | 0.002 | – | – | – | –
CC[C@@](C)(Nc1ccnc(-c2c[nH]c3ncc(Cl)cc23)n1)C(=O)NCC(F)(F)F [compound 16] | 0.01 | 0.002 | – | – | – | –
CCNC(=O)C(C)(C)Nc1ccnc(-c2c[nH]c3ncc(Cl)cc23)n1 [compound 17] | 0.003 | 0.001 | – | – | – | –
CC(C)[C@](C)(Nc1ccnc(-c2c[nH]c3ncc(Cl)cc23)n1)C(=O)NCC(F)(F)F [compound 18] | 0.0007 | 0.001 | – | – | – | –
CC(C)(Nc1nc(-c2c[nH]c3ncc(Cl)cc23)ncc1F)C(=O)NCC(F)(F)F [compound 19] | 0.001 | 0.004 | – | – | – | –
